In ChEMBL document CHEMBL2150872, “A transcription factor hijacking to regulate RARα by using a chimeric molecule of retinoic acid and a DNA alkylator” (Bioorg Med Chem Lett, 2011):
Active and inactive are the calls of the source. The rule behind the calls is not given here.

How the values were obtained:
[1] = biological target: T1, Retinoic acid receptor alpha (Homo sapiens) (UniProt P10276); assay: Displacement of [3H]ATRA from RARalpha overexpressed in COS cell extract after 12 hrs by liquid scintillation counting; type: cell-free
T1 sequence (whole entry): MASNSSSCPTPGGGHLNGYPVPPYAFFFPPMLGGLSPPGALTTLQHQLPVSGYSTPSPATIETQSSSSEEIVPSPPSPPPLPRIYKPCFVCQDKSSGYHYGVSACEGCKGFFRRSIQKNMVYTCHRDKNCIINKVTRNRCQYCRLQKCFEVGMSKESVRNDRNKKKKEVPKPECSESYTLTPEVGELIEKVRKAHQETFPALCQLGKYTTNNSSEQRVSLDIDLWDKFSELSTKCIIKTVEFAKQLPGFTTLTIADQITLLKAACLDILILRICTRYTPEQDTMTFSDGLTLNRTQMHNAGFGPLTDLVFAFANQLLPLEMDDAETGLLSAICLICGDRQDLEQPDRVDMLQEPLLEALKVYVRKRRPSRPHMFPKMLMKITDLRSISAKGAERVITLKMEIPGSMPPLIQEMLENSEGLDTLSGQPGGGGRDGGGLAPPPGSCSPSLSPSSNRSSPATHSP

[2] = Induction of RARalpha recruitment to [gamma-32P]-5'-end labeled pUC18 DNA fragment at 10 mM after 30 mins by EMSA
[3] = tested on: Nucleic Acid; assay: Binding affinity to [gamma-32P]-5'-end labeled pUC18 DNA fragment assessed as alkylation at N7 positions of guanine base by strand-breakage assay; type: nucleic-acid assay
[4] = tested on: Nucleic Acid; assay: Binding affinity to [gamma-32P]-5'-end labeled pUC18 DNA fragment by autoradiography; type: nucleic-acid assay
[5] = biological target: T1, Retinoic acid receptor alpha (Homo sapiens); assay: Inhibition of transactivation of RARalpha overexpressed in COS cells after 24 hrs by luciferase reporter gene assay in presence of ATRA; type: cell-based
[6] = biological target: T1, Retinoic acid receptor alpha (Homo sapiens); assay: Displacement of [3H]ATRA from RARalpha overexpressed in COS cell extract at 10 nM after 12 hrs by liquid scintillation counting; type: cell-free
[7] = Induction of RARalpha recruitment to [gamma-32P]-5'-end labeled pUC18 DNA fragment at 1 mM after 30 mins by EMSA

Structure (SMILES) | Activity [1] | Activity [2] | Activity [3] | Activity [4] | inhibition [5] | Activity [6] | Activity [7]
CC1=C(/C=C/C(C)=C/C=C/C(C)=C/C(=O)NCCCc2ccc(N(CCCl)CCCl)cc2)C(C)(C)CCC1 | Dose-dependent effect | Active | Active | Active | Dose-dependent effect | Active | –
O=C(O)CCCc1ccc(N(CCCl)CCCl)cc1 | – | – | Active | – | – | – | inactive
